Some test systems named below: MDA-N; DLD-1 colon; KM20L2 colon; RXF-631 renal; SNB-78 CNS; XF 498 CNS; DMS 273 small cell lung; M19-MEL melanoma; HOP-18 NSCLC.
What all share (assay): NCI anticancer screen, dose series, 48 h

The record followed here is PubChem BioAssay (NCI).

SMILES strings stand for the structures. “And” between values parts separate entries of the source, which are not always exact repeats. Equal entries are not always repeated.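 Briefly, cells in 96-well plates were exposed to five compound concentrations for 48 h, and endpoints were estimated by linear interpolation. GI50 marks 50% less growth. TGI marks complete inhibition of growth.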

Turning to `Cc1cc(=O)oc2cc(OC(=O)Nc3ccc(Cl)c(Cl)c3)ccc12`, the TGI with MDA-N is 54.7 µM.

`COc1cc(-c2oc3c(OC)c(OC)cc(O)c3c(=O)c2OC)ccc1O`: the TGI was over 100 µM with DLD-1 colon; over 100 µM in the experiment on KM20L2 colon; over 50 µM in the experiment with MDA-N; over 100 µM with RXF-631 renal; over 100 µM in the experiment with SNB-78 CNS; 16.1 µM in the experiment with XF 498 CNS.

`COc1ccc(NC(=O)C(=O)NNC(=O)c2sc(NNC(C)=O)nc2C)c([N+](=O)[O-])c1`: the TGI with DMS 273 small cell lung, with KM20L2 colon, in the experiment with M19-MEL melanoma, in the experiment on SNB-78 CNS and in the experiment with XF 498 CNS was over 100 µM throughout.

For the compound `CCC(C(=O)[O-])C(=O)[O-].CCC(C(=O)[O-])C(=O)[O-].N.N.NCCCCCN.[Pt+4].[Pt+4]`, the GI50 with DLD-1 colon was over 100 µM; in the experiment on DMS 273 small cell lung, 95.8 µM; in the experiment with HOP-18 NSCLC, over 100 µM; in the experiment with KM20L2 colon it was over 100 µM; in the experiment on SNB-78 CNS, over 100 µM. Moreover, the TGI in the experiment with DLD-1 colon, in the experiment with DMS 273 small cell lung, in the experiment on HOP-18 NSCLC, with KM20L2 colon and with SNB-78 CNS was over 100 µM each time.

As for `NC(=O)c1csc(C2C=CC(CO)O2)n1` (stereo unspecified), the TGI in the experiment on DMS 273 small cell lung, with HOP-18 NSCLC, with KM20L2 colon, in the experiment on RXF-631 renal, with SNB-78 CNS and in the experiment with XF 498 CNS was over 100 µM each time.

Turning to `O=C1CC2CCCCC2=C1O` (stereo unspecified), the TGI in the experiment on DLD-1 colon, in the experiment on DMS 273 small cell lung, with M19-MEL melanoma, in the experiment on RXF-631 renal, in the experiment with SNB-78 CNS and in the experiment on XF 498 CNS was over 100 µM throughout.

`Cc1ccc(NC(=O)CC(=O)n2nc(-c3ccccc3)c(N=Nc3ccc(Cl)cc3)c2-c2ccccc2)cc1`: the TGI with DLD-1 colon is 54.4 µM; in the experiment on DMS 273 small cell lung, over 100 µM; in the experiment with HOP-18 NSCLC, over 100 µM; in the experiment with KM20L2 colon, over 100 µM; in the experiment on M19-MEL melanoma, 60.4 µM; with RXF-631 renal, over 100 µM. Also, the TGI in the experiment on SNB-78 CNS is over 100 µM.

Regarding `Cc1cc(O)c2c(c1)C(=O)c1cc(O)cc(O)c1C2=O`, the TGI with DLD-1 colon is over 100 µM; in the experiment on DMS 273 small cell lung, 62.2 µM; in the experiment with HOP-18 NSCLC, 37 µM; in the experiment on KM20L2 colon it was over 100 µM; in the experiment on RXF-631 renal, over 100 µM; in the experiment with SNB-78 CNS it was over 100 µM. This compound yielded a TGI in the experiment on XF 498 CNS of 86.7 µM.

For `C/C(=N\NC(=O)CC(=O)Nc1ccc(Cl)cc1)c1cc2ccccc2oc1=O`, the TGI in the experiment with DLD-1 colon, with DMS 273 small cell lung, in the experiment with HOP-18 NSCLC, in the experiment with KM20L2 colon, in the experiment on M19-MEL melanoma and in the experiment on XF 498 CNS was over 100 µM throughout.

In the case of `Cc1ccc(NS(=O)(=O)c2cc(C(C)(C)C)ccc2OCCOCCOCCOc2ccc(C(C)(C)C)cc2S(=O)(=O)Nc2ccc(C)cc2)cc1`, the TGI with DLD-1 colon, in the experiment on DMS 273 small cell lung, with HOP-18 NSCLC, in the experiment on M19-MEL melanoma and in the experiment with SNB-78 CNS was over 100 µM throughout.

In the case of `O=C(CC/C(C/C(=N/O)c1ccc(F)cc1)=N/O)N(Cc1ccccc1)Cc1ccccc1`, the TGI in the experiment on DLD-1 colon, in the experiment on DMS 273 small cell lung, in the experiment with HOP-18 NSCLC, in the experiment on KM20L2 colon and with M19-MEL melanoma was over 100 µM each time.

`Cc1ccc(S(=O)(=O)CNC(=S)CCCC(=S)NCS(=O)(=O)c2ccc(C)cc2)cc1`: the TGI in the experiment on DLD-1 colon, with DMS 273 small cell lung, in the experiment with KM20L2 colon, in the experiment with M19-MEL melanoma, with RXF-631 renal and in the experiment with SNB-78 CNS was over 100 µM each time. The compound further had a TGI in the experiment with XF 498 CNS of over 100 µM.

As to `N#Cc1c[nH]n2ccnc12`, the TGI with MDA-N is over 100 µM.

For the compound `Cc1ccc(S(=O)(=O)N2CCC3(C(/C=C/c4ccccc4)=Nc4ccccc43)C2c2ccccc2)cc1` (stereo unspecified), the TGI with DLD-1 colon, in the experiment with DMS 273 small cell lung, in the experiment on KM20L2 colon, in the experiment on M19-MEL melanoma, in the experiment with SNB-78 CNS and with XF 498 CNS was over 100 µM throughout.

Turning to `CC1=C(C(=O)Nc2ccccc2C)C(c2ccc([N+](=O)[O-])cc2)C(C(=O)Nc2ccccc2C)=C(C)N1`, the TGI with DLD-1 colon, in the experiment with DMS 273 small cell lung, in the experiment with HOP-18 NSCLC, in the experiment with KM20L2 colon, in the experiment on M19-MEL melanoma and in the experiment with RXF-631 renal was over 100 µM in each case. The TGI in the experiment with XF 498 CNS is over 100 µM.

In the experiment with MDA-N, `C(CCc1nnc2c(n1)CCCC2)Cc1nnc2c(n1)CCCC2` showed a TGI of over 100 µM.

As for `CC(=O)OCC1OC(OC2CC3C(C)(C)C(OC(C)=O)CC[C@]3(C)C3CCC45CC4(CC[C@H]5C(C)CC(O)C4OC4(C)C)[C@]23C)C(O)C(O)C1O` (stereo partly specified), the GI50 is 2.38 µM in the experiment on DLD-1 colon; over 60 µM with KM20L2 colon; 2.35 µM in the experiment on M19-MEL melanoma; 3.96 µM in the experiment on SNB-78 CNS; 1.26 µM with XF 498 CNS. Further, the TGI is 4.4 µM and 4.77 µM with DLD-1 colon; 5.76 µM and 4.37 µM with DMS 273 small cell lung; 8.91 µM and 5.96 µM with HOP-18 NSCLC; 6.5 µM and 6.19 µM with M19-MEL melanoma; 9.55 µM in the experiment on RXF-631 renal; 13.3 µM and 16.2 µM with SNB-78 CNS. The TGI in the experiment on XF 498 CNS was 3.64 µM and 3.81 µM.

As to `CC[C@@]1(O)C(=O)OCc2c1cc1n(c2=O)Cc2cc3cc(OC)ccc3nc2-1`, the TGI in the experiment on DMS 273 small cell lung was 1.58 µM; with M19-MEL melanoma it was 1.48 µM; in the experiment on MDA-N it was 1.04 µM.

Take `CCCCCCCCCCCCCC/C(C(=O)OC)=C(/O)C(=O)OCC`: the TGI is over 100 µM with DLD-1 colon; over 100 µM in the experiment with DMS 273 small cell lung; 73.7 µM with HOP-18 NSCLC; over 100 µM in the experiment with M19-MEL melanoma; 93.6 µM with RXF-631 renal; over 100 µM in the experiment on SNB-78 CNS. This compound gave a TGI with XF 498 CNS of 53.8 µM.

On to `CN(C)c1ccc(/C=C2\CNC/C(=C\c3ccc(N(C)C)cc3)C2=O)cc1`, for which the TGI with DLD-1 colon was 46.2 µM; in the experiment on DMS 273 small cell lung it was 27.6 µM; in the experiment with HOP-18 NSCLC it was 36.8 µM; with KM20L2 colon, over 100 µM; in the experiment with M19-MEL melanoma, 46.8 µM; with RXF-631 renal, 60.7 µM. In addition, the TGI in the experiment on SNB-78 CNS was over 100 µM; with XF 498 CNS, 48.6 µM.
